Results from patent US12691107B2, “Methods for the treatment and prevention of lung infections caused by gram-positive bacteria, fungus, or virus by administration of tafenoquine” (priority 2020, dated 2026).
Converted amounts (≈) assume the structure as drawn. “And” between values parts separate entries of the source, which are not always exact repeats. Identical values can stand only once. Like-named read-outs stand apart in the source and are kept apart here.

Tests used:
Aspergillus fumigatus = assay: Antifungal MIC (RPMI-1640 microdilution); format: cell-based
GPCMV strain 22122 = assay: GPCMV qPCR assay in Guinea Pig Lung cells; format: cell-based; details: Cavia porcellus, 168 h, 7 d
[1] = Calculation of RLTEC and MPEC50 for tafenoquine against SARS-CoV-2; details: human, lung/whole blood; assumed to be the same as rats; read-out: Ratio of lung to whole blood concentration for humans
Description: (§1) Pneumocystis was used as a model organism against which to set minimum requirements for the maximum acceptable in vitro EC50 of tafenoquine against SARS-CoV-2 in vitro. Pneumocystis was selected because it is the only lung pathogen for which both in vitro and in vivo data are available for tafenoquine. The maximum lung tissue concentration [LTsscmaxrats] at the minimum dose of tafenoquine necessary to inhibit the growth of Pneumocystis in vivo in a treatment modality was calculated using relevant data derived from the scientific literature [see Table 7]. The ratio of that concentration to the EC50 against Pneumocystis in vitro RLTEC was determined [see Table 7]. The plasma steady state Cmax [Psscmaxhumans] at the approved prophylactic dose is known from the ARAKODA product insert [60 Degrees Pharmaceuticals. 2018. Product Insert for ARAKODA.]. The maximum steady state lung tissue concentration [LTsscmaxhumans] of that dose was determined using relevant metrics from the literature. The maximum permissible EC50 (“MPEC50”) was then defined by dividing the LTsscmaxhumans by the RLTEC [Table 7].
(§2) The steady state Cmax at the approved prophylactic dose is known based on prior modeling. The maximum steady state lung tissue concentration of that dose was estimated to be 389 microM [Table 7].
(§3) [Note: These calculated values provided in this example were recalculated and updated in the present application and therefore may differ from what is presented in some cross-referenced U.S. Provisional Applications.]

SARS-CoV-2 = assay: as above
Description: as §1, §2, §3

Vero E6 cells = details: African green monkey
Pneumocystis = details: cited from earlier work; for minimum dose required to reduce parasitemia nearly to zero: two to three week period
P. falciparum = details: seven strains, three repeat assays; cited from earlier work
Plasmodium cynomolgi = details: for three days; cited from earlier work
Babesia = details: mice; cited from earlier work
[2] = Plasma levels of tafenoquine in humans; details: human, in vivo
C. krusei = assay: Antifungal MIC (RPMI-1640 microdilution); format: cell-based; details: Pichia kudriavzevii, isolate ATCC 6258
Candida auris = assay: Antifungal MIC (RPMI-1640 microdilution); format: cell-based
Saksenaea sp. = assay: Antifungal MIC (RPMI-1640 microdilution); format: cell-based
Aspergillus flavus = assay: Antifungal MIC (RPMI-1640 microdilution); format: cell-based
Scedosporium sp. = assay: Antifungal MIC (RPMI-1640 microdilution); format: cell-based
Enterococcus faecium = assay: Antibacterial MIC (broth microdilution); format: cell-based; details: isolate 1593
K. pneumoniae = assay: Antibacterial MIC (broth microdilution); format: cell-based; details: Klebsiella pneumoniae
[3] = read-out: MIC 100% inhibition, isolate AF293

`COc1cc(C)c2c(Oc3cccc(C(F)(F)F)c3)c(OC)cc(NC(C)CCCN)c2n1` (centres unmarked) [Tafenoquine, N(4)-[2,6-Dimethoxy-4-methyl-5-[3-(trifluoromethyl)phenoxy]quinolin-8-yl]pentane-1,4-diamine] showed an MIC (Aspergillus fumigatus; [3]) of 16 µg/mL (≈ 34.5 µM), an EC50 (GPCMV strain 22122) greater than 6 µM and a Kp [1] of 250. The “LTsscmaxhumans (maximum steady state lung tissue concentration)” value (SARS-CoV-2; approved prophylactic dose) was 389 µM, the “LTcmaxrats (maximum lung tissue concentration)” value (SARS-CoV-2; plasma Cmax multiplied by 2.6 and 250) was 23,296 ng/ml and the CC50 (Vero E6 cells) was 37.2 µM. For the same compound, the “minimum dose required to reduce parasitemia nearly to zero” value (Pneumocystis; prophylaxis, once every 4 days orally) was 4 mg/kg, the “Dose in female rats required to exhibit a statistically significant impairment of Pneumocystis replication” value (Pneumocystis; treatment modality) was 2 mpk q 4 days and 2 mpk q 4 mpk q 4 days and the “minimum dose required to reduce parasitemia nearly to zero” value (Pneumocystis; treatment, daily orally) was 4 mg/kg/day. For the same compound, the “fold more potent than primaquine (average 50% inhibitory concentrations)” value (P. falciparum) was 7.1 fold, the “dose required to eliminate the replicating blood stage forms” value (Plasmodium cynomolgi) was 6 mg/kg/day and the “dose required to kill the quiescent hypnozoites” value (Plasmodium cynomolgi) was 0.6 mg/kg/day. The “dose clearing Babesia parasitemia” value (Babesia) was 20 mg/kg and the “ratio between steady state and single dose concentrations” value [2] was “approximately 3.3”.

`COc1cc(C)c2c(Oc3cccc(C(F)(F)F)c3)c(OC)cc(NC(C)CCCN)c2n1.O=C(O)CCC(=O)O` (centres unmarked) [Tafenoquine Succinate] gave an MIC50 (C. krusei; ATCC6258, read-out: MIC 50% inhibition) of 4 µg/mL, an MIC (C. krusei; ATCC6258, read-out: MIC 100% inhibition) of 4 µg/mL and an MIC50 (Candida auris; Candidozyma auris, read-out: MIC 50% inhibition, isolate DI17-46) of 4 µg/mL. For the same compound, the MIC50 (Candida auris; Candidozyma auris, read-out: MIC 50% inhibition, isolate DI17-47) was 4 µg/mL, the MIC50 (Candida auris; Candidozyma auris, read-out: MIC 50% inhibition, isolate DI17-48) was 2 µg/mL and the MIC (Candida auris; Candidozyma auris, read-out: MIC 100% inhibition, isolate DI17-47) was 4 µg/mL. For the same compound, the “MIC 100% inhibition” value (Candida auris; isolate DI17-46) was 4 µg/mL, the “MIC 100% inhibition” value (Candida auris; isolate DI17-48) was 4 µg/mL and the MIC50 (Saksenaea sp.; read-out: MIC 50% inhibition, isolate Sak1) was 4 µg/mL. It also gave an MIC50 (Saksenaea sp.; read-out: MIC 50% inhibition, isolate Sak2) of 2 µg/mL, an MIC50 (Saksenaea sp.; read-out: MIC 50% inhibition, isolate Sak3) of 8 µg/mL and an MIC (Saksenaea sp.; read-out: MIC 100% inhibition, isolate Sak1) of 8 µg/mL. The MIC (Saksenaea sp.; read-out: MIC 100% inhibition, isolate Sak2) was 2 µg/mL, the MIC (Saksenaea sp.; read-out: MIC 100% inhibition, isolate Sak3) was 8 µg/mL and the MIC50 (Aspergillus flavus; ATCC204304, read-out: MIC 50% inhibition, isolate ATCC 204304) was 4 µg/mL. For the same compound, the MIC (Aspergillus flavus; ATCC204304, read-out: MIC 100% inhibition, isolate ATCC 204304) was 4 µg/mL, the MIC50 (Aspergillus flavus; read-out: MIC 50% inhibition, isolate Aflav2) was 8 µg/mL and the MIC50 (Aspergillus flavus; read-out: MIC 50% inhibition, isolate Aflav3) was 4 µg/mL. The MIC (Aspergillus flavus; read-out: MIC 100% inhibition, isolate Aflav2) was 16 µg/mL, the MIC (Aspergillus flavus; read-out: MIC 100% inhibition, isolate Aflav3) was 8 µg/mL and the MIC50 (Aspergillus fumigatus; read-out: MIC 50% inhibition, isolate AF293) was 8 µg/mL. The MIC50 (Aspergillus fumigatus; read-out: MIC 50% inhibition, isolate D115-106) was 4 µg/mL, the MIC50 (Aspergillus fumigatus; read-out: MIC 50% inhibition, isolate D115-116) was 4 µg/mL and the MIC (Aspergillus fumigatus; [3]) was 16 µg/mL. It also gave an MIC (Aspergillus fumigatus; read-out: MIC 100% inhibition, isolate D115-106) of 8 µg/mL, an MIC (Aspergillus fumigatus; read-out: MIC 100% inhibition, isolate D115-116) of 4 µg/mL and an MIC50 (Scedosporium sp.; Scedosporium, read-out: MIC 50% inhibition, isolate 00-180) of 4 µg/mL. It also gave an MIC (Scedosporium sp.; Scedosporium, read-out: MIC 100% inhibition, isolate 00-180) of 8 µg/mL, an MIC (Scedosporium sp.; Scedosporium, read-out: MIC 100% inhibition, isolate LPI) of 8 µg/mL and an MIC (Scedosporium sp.; Scedosporium, read-out: MIC 100% inhibition, isolate Scedo1) of 4 µg/mL. For the same compound, the “MIC 50% inhibition” value (Scedosporium sp.; isolate LPI) was 4 µg/mL, the “MIC 50% inhibition” value (Scedosporium sp.; isolate Scedo1) was 4 µg/mL and the MIC (Enterococcus faecium) was 8 µg/mL. It also gave an MIC (K. pneumoniae; ATCC70063, isolate ATCC 70063) greater than 64 µg/mL, an MIC (K. pneumoniae; isolate AR-97) greater than 64 µg/mL and an MIC (K. pneumoniae; isolate AR-113) greater than 64 µg/mL.
